In patent publication US10562909B2, “Fused quadracyclic compounds, compositions and uses thereof” (Tabomedex Biosciences, LLC, priority 2016, dated 2020) one finds IC50 data, which are given here for 27 molecules.

For the test, the target named is MAPKAPK2 (Homo sapiens, UniProt P49137). The experiment in a line: MK2 Enzymatic Assay. It counts as biochemical. To be noted: 0.5 nM MAPKAPK2, 3 μM ATP, 2 μM Ser/Thr4 peptide, 23° C., values given as concentration bins. The procedure, abridged: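 MAPKAPK2 (2× stock 1 nM) and peptide substrate (2× 4 μM) were preincubated 20 min, then started with ATP (2× stock 6 μM) for 120 min. After 120 min development, coumarin/fluorescein emission ratio gave percent phosphorylation against 0% and 100% phosphopeptide controls.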
MAPKAPK2, sequence (P49137 whole entry, species assumed): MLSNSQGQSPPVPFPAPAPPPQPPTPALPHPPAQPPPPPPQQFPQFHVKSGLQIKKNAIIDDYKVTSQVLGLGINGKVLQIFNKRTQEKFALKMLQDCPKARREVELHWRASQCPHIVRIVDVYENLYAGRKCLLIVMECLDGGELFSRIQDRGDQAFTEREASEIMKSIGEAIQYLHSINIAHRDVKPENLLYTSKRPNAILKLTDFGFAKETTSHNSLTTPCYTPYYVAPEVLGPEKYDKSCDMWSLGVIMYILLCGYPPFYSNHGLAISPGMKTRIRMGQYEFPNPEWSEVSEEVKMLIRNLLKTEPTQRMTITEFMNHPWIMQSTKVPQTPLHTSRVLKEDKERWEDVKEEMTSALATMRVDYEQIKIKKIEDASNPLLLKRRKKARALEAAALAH
In turn, `CN(C)[C@@H]1CN(c2ccc3c(c2)Cn2cc(-c4ccc(F)cc4)cc2-c2ncnn2-3)C[C@H]1CO` (relative stereo) [Compound 504, (Trans-4-(dimethylamino)-1-(12-(4-fluorophenyl)-9H-benzo[e]pyrrolo[1,2-a][1,2,4]triazolo[5,1-c][1,4]diazepin-7-yl)pyrrolidin-3-yl)methanol] gave an IC50 of 100 to 200 nM. The figure for `CN(C)[C@@H]1CN(c2ccc3c(c2)Cn2cc(-c4ccc(C#N)cc4)cc2-c2nncn2-3)C[C@@H]1O` [Compound 83, 4-(7-((3R,4S)-3-(dimethylamino)-4-hydroxypyrrolidin-1-yl)-9H-benzo[e]pyrrolo[1,2-a] [1,2,4]triazolo[3,4-c][1,4]diazepin-12-yl)benzonitrile] is 50 to 100 nM.

`C[C@H](CO)NC[C@@H]1CCN(c2ccc3c(c2)Cn2cc(-c4ccc(F)cc4)cc2-c2nccn2-3)C1` [Compound 354, (R)-2-((((S)-1-(12-(4-fluorophenyl)-9H-benzo[e]imidazo[2,1-c]pyrrolo[1,2-a][1,4]diazepin-7-yl)pyrrolidin-3-yl)methyl)amino)propan-1-ol] had an IC50 of under 50 nM. `N#Cc1ccc(-c2cc3n(c2)Cc2cc(N4C[C@@H](F)[C@@H](N)C4)ccc2-n2cnnc2-3)cc1` (racemic) [Compound 76, 4-(7-(cis-3-amino-4-fluoropyrrolidin-1-yl)-9H-benzo[e]pyrrolo[1,2-a][1,2,4]triazolo[3,4-c][1,4]diazepin-12-yl)benzonitrile]: the IC50 was under 50 nM. The figure for `CN(C)C[C@H]1CN(c2ccc3c(n2)Cn2cc(-c4ccc(C#N)cc4)cc2-c2nccn2-3)C[C@@H]1O` [Compound 306, 4-(7-((3S,4R)-3-((dimethylamino)methyl)-4-hydroxypyrrolidin-1-yl)-9H-imidazo[2,1-c]pyrido[3,2-e]pyrrolo[1,2-a][1,4]diazepin-12-yl)benzonitrile] is under 50 nM; for `CN(C)C[C@H]1CCN(c2ccc3c(c2)Cn2cc(-c4ccc(F)cc4)cc2-c2nnnn2-3)C1` [Compound 394, (R)-1-(1-(12-(4-fluorophenyl)-9H-benzo[e]pyrrolo[1,2-a]tetrazolo[5,1-c][1,4]diazepin-7-yl)pyrrolidin-3-yl)-N,N-dimethylmethanamine] it is 50 to 100 nM; for `N#Cc1ccc(-c2cc3n(c2)Cc2cc(N4CC[C@H](CN5CCC(O)CC5)C4)ccc2-n2cnnc2-3)cc1` [Compound 111, (R)-4-(7-(3-((4-hydroxypiperidin-1-yl)methyl)pyrrolidin-1-yl)-9H-benzo[e]pyrrolo[1,2-a] [1,2,4]triazolo[3,4-c][1,4]diazepin-12-yl)benzonitrile] it is under 50 nM. For `CN(C)[C@@H]1CCN(c2cc3c(cn2)-n2cnnc2-c2cc(-c4ccc(C#N)cc4)cn2C3)C1` [Compound 319, (R)-4-(7-(3-(dimethylamino)pyrrolidin-1-yl)-9H-pyrido[3,4-e]pyrrolo[1,2-a][1,2,4]triazolo[3,4-c][1,4]diazepin-12-yl)benzonitrile], the IC50 was 50 to 100 nM.

`CN(C)C[C@H]1CN(c2ccc3c(n2)Cn2cc(-c4ccc(C#N)cc4)cc2-c2nccn2-3)C[C@H]1O` [Compound 298, 4-(7-((3S,4S)-3-((dimethylamino)methyl)-4-hydroxypyrrolidin-1-yl)-9H-imidazo[2,1-c]pyrido[3,2-e]pyrrolo[1,2-a][1,4]diazepin-12-yl)benzonitrile] yielded an IC50 of under 50 nM. The value for `CN(C)[C@@H]1CN(c2ccc3c(c2)Cn2cc(-c4ccc(F)cc4)cc2-c2nccn2-3)C[C@@H]1O` [Compound 353, (3S,4R)-4-(dimethylamino)-1-(12-(4-fluorophenyl)-9H-benzo[e]imidazo[2,1-c]pyrrolo[1,2-a] [1,4]diazepin-7-yl)pyrrolidin-3-ol] was under 50 nM; that for `CN(C)[C@H]1CN(c2ccc3c(c2)Cn2cc(-c4ccc(C#N)cc4)cc2-c2nncn2-3)C[C@@H]1O` [Compound 58, 4-(7-((3S,4S)-3-(dimethylamino)-4-hydroxypyrrolidin-1-yl)-9H-benzo[e]pyrrolo[1,2-a][1,2,4]triazolo[3,4-c][1,4]diazepin-12-yl)benzonitrile] was 50 to 100 nM; that for `CN(C)C[C@H]1CN(c2ccc3c(n2)Cn2cc(-c4ccc(F)cc4)cc2-c2nccn2-3)C[C@@H]1O` [Compound 435, (3R,4S)-4-((dimethylamino)methyl)-1-(12-(4-fluorophenyl)-9H-imidazo[2,1-c]pyrido[3,2-e]pyrrolo[1,2-a][1,4]diazepin-7-yl)pyrrolidin-3-ol] was under 50 nM. The value for `CC(C)(CO)NC[C@@H]1CCN(c2ccc3c(c2)Cn2cc(-c4ccc(C#N)cc4)cc2-c2nccn2-3)C1` [Compound 141, (S)-4-(7-(3-(((1-hydroxy-2-methylpropan-2-yl)amino)methyl)pyrrolidin-1-yl)-9H-benzo[e]imidazo[2,1-c]pyrrolo[1,2-a][1,4]diazepin-12-yl)benzonitrile] was under 50 nM; that for `N[C@H]1CN(c2ccc3c(c2)Cn2cc(-c4ccc(F)cc4)cc2-c2nccn2-3)C[C@@H]1CO` (relative stereo) [Compound 489, ((trans)-4-amino-1-(12-(4-fluorophenyl)-9H-benzo[e]imidazo[2,1-c]pyrrolo[1,2-a][1,4]diazepin-7-yl)pyrrolidin-3-yl)methanol] was under 50 nM. The figure for `N#Cc1ccc(-c2cc3n(c2)Cc2nc(N4CC[C@@H](CN5CCC(O)CC5)C4)ccc2-n2ccnc2-3)cc1` [Compound 308, (S)-4-(7-(3-((4-hydroxypiperidin-1-yl)methyl)pyrrolidin-1-yl)-9H-imidazo[2,1-c]pyrido[3,2-e]pyrrolo[1,2-a][1,4]diazepin-12-yl)benzonitrile] is under 50 nM; for `C[C@H](CO)NC[C@H]1CCN(c2ccc3c(c2)Cn2cc(-c4ccc(C#N)cc4)cc2-c2nncn2-3)C1` [Compound 85, 4-(7-((R)-3-((((R)-1-hydroxypropan-2-yl)amino)methyl)pyrrolidin-1-yl)-9H-benzo[e]pyrrolo[1,2-a][1,2,4]triazolo[3,4-c][1,4]diazepin-12-yl)benzonitrile] it is under 50 nM; for `CN(C)C[C@H]1CCN(c2ccc3c(c2)Cn2cc(-c4ccc(F)cc4)cc2-c2nccn2-3)C1` [Compound 346, (R)-1-(1-(12-(4-fluorophenyl)-9H-benzo[e]imidazo[2,1-c]pyrrolo[1,2-a][1,4]diazepin-7-yl)pyrrolidin-3-yl)-N,N-dimethylmethanamine] it is under 50 nM. For the molecule `CNC[C@H]1CCN(c2ccc3c(c2)Cn2cc(-c4ccc(C#N)cc4)cc2-c2ncnn2-3)C1` [Compound 263, (R)-4-(7-(3-((methylamino)methyl)pyrrolidin-1-yl)-9H-benzo[e]pyrrolo[1,2-a][1,2,4]triazolo[5,1-c][1,4]diazepin-12-yl)benzonitrile], the IC50 is 100 to 200 nM. The value for `CN(C)C[C@@H]1CCN(c2ccc3c(c2)Cn2cc(-c4ccc(C#N)cc4)cc2-c2ncnn2-3)C1` [Compound 254, (S)-4-(7-(3-((dimethylamino)methyl)pyrrolidin-1-yl)-9H-benzo[e]pyrrolo[1,2-a][1,2,4]triazolo[5,1-c][1,4]diazepin-12-yl)benzonitrile] was 50 to 100 nM; that for `C[C@H]1c2cc(N3C[C@@H](CN(C)C)[C@H](O)C3)ccc2-n2ccnc2-c2cc(-c3ccc(F)cc3)cn21` [Compound 509, (3S,4R)-4-((dimethylamino)methyl)-1-((S)-12-(4-fluorophenyl)-9-methyl-9H-benzo[e]imidazo[2,1-c]pyrrolo[1,2-a][1,4]diazepin-7-yl)pyrrolidin-3-ol] was under 50 nM. The value for `CN1CC2(CCN(c3ccc4c(c3)Cn3cc(-c5ccc(C#N)cc5)cc3-c3ncnn3-4)C2)C1` [Compound 253, 4-(7-(2-methyl-2,6-diazaspiro[3.4]octan-6-yl)-9H-benzo[e]pyrrolo[1,2-a][1,2,4]triazolo[5,1-c][1,4]diazepin-12-yl)benzonitrile] was under 50 nM. The value for `CN(C)C[C@H]1CN(c2ccc3c(c2)Cn2cc(-c4ccc(F)cc4)cc2-c2ncnn2-3)C[C@@H]1O` [Compound 421, (3R,4S)-4-((dimethylamino)methyl)-1-(12-(4-fluorophenyl)-9H-benzo[e]pyrrolo[1,2-a][1,2,4]triazolo[5,1-c][1,4]diazepin-7-yl)pyrrolidin-3-ol] was under 50 nM; that for `CN(C)C[C@H]1CN(c2ccc3c(c2)Cn2cc(-c4ccc(C#N)cc4)cc2-c2nccn2-3)C[C@@H]1O` [Compound 137, 4-(7-((3S,4R)-3-((dimethylamino)methyl)-4-hydroxypyrrolidin-1-yl)-9H-benzo[e]imidazo[2,1-c]pyrrolo[1,2-a][1,4]diazepin-12-yl)benzonitrile] was under 50 nM; that for `Fc1ccc(-c2cc3n(c2)Cc2cc(N4CCC5(CNC5)C4)ccc2-n2cnnc2-3)cc1` [Compound 336, 12-(4-fluorophenyl)-7-(2,6-diazaspiro[3.4]octan-6-yl)-9H-benzo[e]pyrrolo[1,2-a][1,2,4] triazolo[3,4-c][1,4]diazepine] was under 50 nM. In the case of `CN(C)[C@@H]1CCN(c2ccc3c(c2)Cn2cc(-c4ccc(C#N)cc4)cc2-c2ncnn2-3)C1` [Compound 259, (R)-4-(7-(3-(dimethylamino)pyrrolidin-1-yl)-9H-benzo[e]pyrrolo[1,2-a][1,2,4]triazolo[5,1-c][1,4]diazepin-12-yl)benzonitrile], the IC50 is under 50 nM.

Molecule `CNC[C@H]1CN(c2ccc3c(c2)Cn2cc(-c4ccc(F)cc4)cc2-c2nccn2-3)C[C@H]1F` [Compound 466, 1-((3S,4S)-4-fluoro-1-(12-(4-fluorophenyl)-9H-benzo[e]imidazo[2,1-c]pyrrolo[1,2-a][1,4]diazepin-7-yl)pyrrolidin-3-yl)-N-methylmethanamine] gave a 50% inhibitory concentration (IC50) of under 50 nM. With `CN(C)[C@H]1CCN(c2ccc3c(c2)Cn2cc(-c4ccc(F)cc4)cc2-c2nccn2-3)C1` [Compound 380, (S)-1-(12-(4-fluorophenyl)-9H-benzo[e]imidazo[2,1-c]pyrrolo[1,2-a][1,4]diazepin-7-yl)-N,N-dimethylpyrrolidin-3-amine], the IC50 was under 50 nM.

Broadly, the IC50 is the midpoint of a concentration-inhibition curve. Lower therefore signals inhibition by little substance.
